Source: ChEMBL document CHEMBL1146023, “Similar structure-activity relationships of quinoline derivatives for antiprion and antimalarial effects” (J Med Chem, 2006)
Calls of active or inactive are those of the source. The rule behind the calls is not given here.

Experiments:
[1] = Toxicity against MRC5 cell line; type: cell-based; conditions: human, MRC5 cells
ScN2a [2] = experiment: Inhibition of scrapie prion formation in mouse ScN2a cell line; type: functional
ScN2a [3] = experiment: Selectivity index, toxicity against ScN2a cell line/EC50 for scrapie prion formation in mouse ScN2a cell line; type: functional
ScN2a [4] = experiment: Toxicity against ScN2a cell line; type: cell-based; conditions: mouse
ScN2a [5] = experiment: Inhibition of scrapie prion formation in mouse ScN2a cell line relative to control; type: functional, cell-based
MRC5 = experiment: Selectivity index, toxicity against MRC5 cell line/EC50 for scrapie prion formation in mouse ScN2a cell line; type: functional
Plasmodium falciparum [6] = experiment: Antimalarial activity against chloroquine-resistant Plasmodium falciparum FcB1 at 100 nM; type: functional
ScN2a [7] = experiment: Toxicity against ScN2a cell line at 10 uM; type: cell-based; conditions: mouse
ScN2a [8] = experiment: Inhibition of scrapie prion formation in mouse ScN2a cell line at 200 nM; type: functional, cell-based
Plasmodium falciparum [9] = experiment: microbe, parasite or virus in culture; conditions: FcB1

Structure (SMILES) | CC50 [1] [nM] | Activity (ScN2a [2]) [nM] | Selectivity index (ScN2a [3]) | Activity (ScN2a [4]) [nM] | EC50 (ScN2a [5]) [nM] | Selectivity index (MRC5) | inhibition at 0.1 µM (Plasmodium falciparum [6]) [%] | Activity (ScN2a [7]) | Activity (ScN2a [8]) | IC50 (Plasmodium falciparum [9]) [nM]
COc1ccc(C(=O)NCCCN2CCN(CCCNc3ccnc4cc(Cl)ccc34)CC2)cc1 | 4000 | 300 | 30 | 3000 | 100 | 40 | – | – | – | –
O=C(NCCCN1CCN(CCCNc2ccnc3cc(Cl)ccc23)CC1)c1cccc(Oc2ccccc2)c1 | 5000 | 300 | 3.75 | 750 | 200 | 25 | – | – | – | –
O=C(NCCCN1CCN(CCCNc2ccnc3cc(Cl)ccc23)CC1)c1ccncc1 | – | 5000 | – | – | 3000 | – | 1 | Non-toxic | – | –
CCN(CC)CCCC(C)Nc1ccnc2cc(Cl)ccc12 (stereo unspecified) [CHLOROQUINE] | 50000 | 10000 | – | – | 4000 | – | – | Non-toxic | – | –
O=S(=O)(NCCCN1CCN(CCCNc2ccnc3cc(Cl)ccc23)CC1)c1ccc(Cl)cc1 | – | 500 | 8 | 2000 | 250 | – | 26 | – | – | –
CC(C)(C)c1ccc(C(=O)NCCCN2CCN(CCCNc3ccnc4cc(Cl)ccc34)CC2)cc1 | – | 200 | 10 | 1000 | 100 | – | – | – | Active | 54.8
O=C(NCCCN1CCN(CCCNc2ccnc3cc(Cl)ccc23)CC1)C1c2ccccc2Oc2ccccc21 | – | 300 | 7.5 | 750 | 100 | – | 11 | – | – | –
O=C(c1ccc2ccccc2c1)N(CCCN1CCN(CCCNc2ccnc3cc(Cl)ccc23)CC1)CC1CC1 | – | 300 | 26.67 | 2000 | 75 | – | 23 | – | – | –
